According to patent publication US9555014B2, “Therapeutic regimens” (Radius Health, Inc., priority 2010, dated 2017):

What was measured:
[1] = tested on: mammary carcinoma cells (MCF-7); assay: Estrogen-dependent proliferation of MCF-7 cells (preclinical data); format: cell-based
From the text: The results of a phase 2a clinical study assessing the effects of the selective estrogen receptor modulator (SERM) (R)-6-(2-(ethyl(4-(2-(ethylamino)ethyl)benzyl)amino)-4-methoxyphenyl)-5,6,7,8-tetrahydronaphthalen-2-ol on women suffering from hot flushes are reported herein.

[2] = tested on: postmenopausal women with frequent, moderate to severe vasomotor symptoms (hot flashes); assay: Phase 2a study: hot flash frequency, severity and composite score; format: in vivo, human (postmenopausal women); conditions: 10 mg
From the text: A phase 2a study was undertaken to assess the effect of (R)-6-(2-(ethyl(4-(2-(ethylamino)ethyl)benzyl)amino)-4-methoxyphenyl)-5,6,7,8-tetrahydronaphthalen-2-ol dihydrochloride (referred to as “drug” in tables below) to alleviate hot flashes in postmenopausal women. The study design and objectives are detailed below.
This is a randomized, placebo-controlled, double-blind, parallel-group, Phase 2, multi-center, dose-finding study to evaluate the effects of (R)-6-(2-(ethyl(4-(2-(ethylamino)ethyl)benzyl)amino)-4-methoxyphenyl)-5,6,7,8-tetrahydronaphthalen-2-ol dihydrochloride in the treatment of vasomotor symptoms in postmenopausal women.
A total of 100 eligible patients will be randomized to receive one of 5 blinded treatment regimens. (R)-6-(2-(ethyl(4-(2-(ethylamino)ethyl)benzyl)amino)-4-methoxyphenyl)-5,6,7,8-tetrahydronaphthalen-2-ol dihydrochloride at doses 0, 10, 25, 50 or 100 mg will be dosed for 28-days.
Patients will document in real time hot flash frequency and severity according to a predetermined scale, in the provided electronic or paper Study Diary. Study Diary entries of hot flash frequency and severity and associated symptoms will be reviewed at each study visit. Serum markers of estrogen effect will be measured at specific study visits while on treatment.
The efficacy endpoints assessed are: • Change in frequency of hot flashes over time • Change in severity of hot flashes over time; • Change in composite score of hot flashes over time (frequency×severity)
(R)-6-(2-(ethyl(4-(2-(ethylamino)ethyl)benzyl)amino)-4-methoxyphenyl)-5,6,7,8-tetrahydronaphthalen-2-ol dihydrochloride was provided by sponsor in capsule form for oral administration. All doses (0, 10, 25, 50 and 100 mg) were provided as identical presentations. Each patient was provided with 2 containers of 28-capsules each at the start of treatment and took one capsule from each container every day for 28-days. Placebo contained the same excipients as active medication, but without (R)-6-(2-(ethyl(4-(2-(ethylamino)ethyl)benzyl)amino)-4-methoxyphenyl)-5,6,7,8-tetrahydronaphthalen-2-ol dihydrochloride. The patients were instructed to take the capsules orally in the fasted state (morning).
Changes in the efficacy endpoints of frequency, severity, and composite score of hot flashes over time; associated hot flash symptoms (palpitations, insomnia, joint aches, and headaches), PD markers of estrogen effect (FSH, LH, and lipid profile), drug levels, and MRS were to be summarized using descriptive statistics. Frequency, severity, and composite score of hot flashes over time were to be analyzed using repeated measures analysis of variance (ANOVA) with factors for treatment (treatment groups), time (study day) and their interaction. A linear trend test for treatment groups (placebo, and 10, 25, 50, 100 mg doses of drug) and for study day as well as any potential interaction between the two was to be included as part of the analyses by including both dose and time as continuous variables in the ANOVA model. Pair-wise comparisons of change from baseline were to be tested between the placebo group and each drug dose group for each timepoint; the mean difference together with a 95% confidence interval of the difference was to be presented for placebo compared with each active treatment group. Nominal p-values at Week 4 were to be presented. In addition, graphical presentations of mean (±standard error of the mean) and percent group responses over time together with repeated measures ANOVA to assess potential trend in responses over time in each dose group were to be presented. For the associated vasomotor symptoms (palpitations, insomnia, joint aches, and headaches collected in the patient diaries), patient and event frequencies were to be summarized by treatment week and treatment group.
Hot flashes were also scored according to their severity with a mild hot flash scored a “1”, a moderate hot flash scored a “2” and a severe hot flash scored a “3”. […]

## CCNCCc1ccc(CN(CC)c2cc(OC)ccc2[C@@H]2CCc3cc(O)ccc3C2)cc1 [compound of formula I, (R)-6-(2-(ethyl(4-(2-(ethylamino)ethyl)-benzyl)amino)-4-methoxyphenyl)-5,6,7,8-tetrahydronaphthalen-2-ol]
[1]
  antagonism of estradiol stimulation on MCF-7 cells: potent antagonist of estradiol stimulation
[1]; compared with prototypical estrogen agonists (e.g. estradiol)
  stimulation of estrogen-dependent proliferation of MCF-7 cells (agonism): does not stimulate estrogen-dependent proliferation
[2]; cohort with 2 hour postdose plasma concentration 0.43 ng/mL to 0.53 ng/mL
  hot flush frequency reduction: −75%
[2]; higher concentration cohort, 2 hour postdose plasma concentration 0.66 ng/mL to 1.34 ng/mL
  hot flush frequency reduction: −77%
